Results reported in US4560685A, “2-Piperazino-pteridines useful as antithrombotics and antimetastatics” (Dr. Karl Thomae Gesellschaft mit beschrankter Haftung, priority 1984, dated 1985).

Test system: mice
Assay: Approximate acute toxicity after oral administration
Type: in vivo
Settings: single dose, observation period 14 days; for animals died: 250 mg/kg
Protocol: The approximate acute toxicity of the test compounds was determined on groups of 5 mice after oral administration of a single dose (observation period: 14 days).

Compound	animals died	Approximate acute toxicity
CN(C)c1nc2nc(N3CCNCC3)nc(N(C)C)c2nc1Cl [B, 6-chloro-4,7-bis(dimethylamino)-2-piperazino-pteridine]	0 out of 5	> 250 mg/kg
CN(C)c1nc2nc(N3CCNCC3)nc(N(C)C)c2nc1SCc1ccccc1 [C, 6-benzylthio-4,7-bis-(dimethylamino)-2-piperazino-pteridine]	0 out of 5	> 250 mg/kg
c1ccc(CSc2nc3c(N4CCOCC4)nc(N4CCNCC4)nc3nc2N2CCOCC2)cc1 [Compound A, 6-benzylthio-4,7-dimorpholino-2-piperazino-pteridine]	0 out of 5	> 250 mg/kg
CSc1nc2c(N3CC[S+]([O-])CC3)nc(N3CCNCC3)nc2nc1NCc1ccccc1 [D, 7-benzylamino-6-methylthio-4-(1-oxido-thiomorpholino)-2-piperazino-pteridine]	0 out of 5	> 250 mg/kg
CN(C)c1nc(N2CCNCC2)nc2nc(NCc3ccccc3)c(Cl)nc12 [E, 6-chloro-2-piperazino-4-dimethylamino-7-benzylamino-pteridine]	0 out of 5	> 250 mg/kg
